From ChEMBL document CHEMBL4732128, “Methylsulfanylpyridine based diheteroaryl isocombretastatin analogs as potent anti-proliferative agents” (Eur J Med Chem, 2021)
Values after ≈ are worked out from the molar mass of the structure shown. Active and inactive are the calls of the source. The calls are words filed in the database; no cut-off is given here.

What was measured:
[1] = Aqueous solubility of the compound in pH 7.0 phosphate buffer at 2 mg incubated for 72 hrs by shake flask method; assay type: physicochemical
[2] = Inhibition of bovine brain tubulin polymerization incubated for 30 mins by turbidimetric assay; assay type: tissue-based, Bos taurus
[3] = test system: HeLa; experiment: Antiproliferative activity against human HeLa cells assessed as inhibition of cell growth after 72 hrs by XTT assay; assay type: functional, cell-based
[4] = test system: HL-60; experiment: Antiproliferative activity against human HL-60 cells assessed as inhibition of cell growth after 72 hrs by XTT assay; assay type: functional, cell-based; conditions: HL-60, 72 h
[5] = test system: HT-29; experiment: Antiproliferative activity against human HT-29 cells assessed as inhibition of cell growth after 72 hrs by XTT assay; assay type: functional, cell-based; conditions: HT-29, 72 h
[6] = target: Tubulin (Homo sapiens) (UniProt P68371+Q9H4B7+P0DPH7+P68366+Q13509+Q71U36+P04350+Q3ZCM7+P07437+P68363+Q9BQE3+Q6PEY2+Q13885+Q9BVA1+Q9BUF5); experiment: Induction of microtubule disruption in human HeLa cells at 1 uM measured after 24 hrs by immunofluorescence staining based confocal microscopic analysis; assay type: cell-based
[7] = test system: HL-60; experiment: Induction of cell cycle arrest in human HL-60 cells assessed as accumulation of cells at Sub-G0/G1 phase at 1 nM after 24 to 72 hrs by propidium iodide staining-based flow cytometric analysis; assay type: functional; conditions: time 24-72 hrs
[8] = test system: HL-60; experiment: Induction of cell cycle arrest in human HL-60 cells assessed as accumulation of cells at G0/G1 phase at 1 nM after 24 to 72 hrs by propidium iodide staining-based flow cytometric analysis; assay type: functional; conditions: time 24-72 hrs
[9] = test system: HL-60; experiment: Induction of cell cycle arrest in human HL-60 cells assessed as accumulation of cells at S phase at 1 nM after 24 to 72 hrs by propidium iodide staining-based flow cytometric analysis; assay type: functional; conditions: time 24-72 hrs
[10] = test system: HL-60; experiment: Induction of cell cycle arrest in human HL-60 cells assessed as accumulation of cells at G2/M phase at 1 nM after 24 to 72 hrs by propidium iodide staining-based flow cytometric analysis; assay type: functional; conditions: time 24-72 hrs
[11] = test system: HeLa; experiment: Induction of cell cycle arrest in human HeLa cells assessed as accumulation of cells at Sub-G0/G1 phase at 1 nM after 24 to 72 hrs by propidium iodide staining-based flow cytometric analysis; assay type: functional; conditions: time 24-72 hrs
[12] = test system: HeLa; experiment: Induction of cell cycle arrest in human HeLa cells assessed as accumulation of cells at G0/G1 phase at 1 nM after 24 to 72 hrs by propidium iodide staining-based flow cytometric analysis; assay type: functional; conditions: time 24-72 hrs
[13] = test system: HeLa; experiment: Induction of cell cycle arrest in human HeLa cells assessed as accumulation of cells at S phase at 1 nM after 24 to 72 hrs by propidium iodide staining-based flow cytometric analysis; assay type: functional; conditions: time 24-72 hrs
[14] = test system: HeLa; experiment: Induction of cell cycle arrest in human HeLa cells assessed as accumulation of cells at G2/M phase at 1 nM after 24 to 72 hrs by propidium iodide staining-based flow cytometric analysis; assay type: functional; conditions: time 24-72 hrs
[15] = test system: HT-29; experiment: Induction of cell cycle arrest in human HT-29 cells assessed as accumulation of cells at Sub-G0/G1 phase at 1 nM after 24 to 72 hrs by propidium iodide staining-based flow cytometric analysis; assay type: functional; conditions: time 24-72 hrs
[16] = test system: HT-29; experiment: Induction of cell cycle arrest in human HT-29 cells assessed as accumulation of cells at G0/G1 phase at 1 nM after 24 to 72 hrs by propidium iodide staining-based flow cytometric analysis; assay type: functional; conditions: time 24-72 hrs
[17] = test system: HT-29; experiment: Induction of cell cycle arrest in human HT-29 cells assessed as accumulation of cells at S phase at 1 nM after 24 to 72 hrs by propidium iodide staining-based flow cytometric analysis; assay type: functional; conditions: time 24-72 hrs
[18] = test system: HT-29; experiment: Induction of cell cycle arrest in human HT-29 cells assessed as accumulation of cells at G2/M phase at 1 nM after 24 to 72 hrs by propidium iodide staining-based flow cytometric analysis; assay type: functional; conditions: time 24-72 hrs
[19] = test system: HL-60; experiment: Induction of cell cycle arrest in human HL-60 cells assessed as accumulation of cells at G2/M phase at 100 nM after 24 hrs by propidium iodide staining-based flow cytometric analysis; assay type: functional
[20] = test system: HT-29; experiment: Induction of cell cycle arrest in human HT-29 cells assessed as accumulation of cells at G2/M phase at 100 nM after 24 hrs by propidium iodide staining-based flow cytometric analysis; assay type: functional
[21] = test system: HeLa; experiment: Induction of cell cycle arrest in human HeLa cells assessed as accumulation of cells at G2/M phase at 100 nM after 24 hrs by propidium iodide staining-based flow cytometric analysis; assay type: functional
[22] = test system: HeLa; experiment: Induction of apoptosis in human HeLa cells assessed as increase in cell accumulation at sub-G0/G1 phase at 100 nM incubated for 24 hrs by propidium iodide staining based flow cytometry; assay type: functional
[23] = test system: HL-60; experiment: Induction of apoptosis in human HL-60 cells assessed as increase in cell accumulation at sub-G0/G1 phase at 100 nM incubated for 48 hrs by propidium iodide staining based flow cytometry; assay type: functional
[24] = test system: HL-60; experiment: Induction of apoptosis in human HL-60 cells assessed as increase in cell accumulation at sub-G0/G1 phase at 100 nM incubated for 72 hrs by propidium iodide staining based flow cytometry; assay type: functional
[25] = test system: HeLa; experiment: Induction of apoptosis in human HeLa cells assessed as increase in cell accumulation at sub-G0/G1 phase at 100 nM incubated for 48 hrs by propidium iodide staining based flow cytometry; assay type: functional
[26] = test system: HeLa; experiment: Induction of apoptosis in human HeLa cells assessed as increase in cell accumulation at sub-G0/G1 phase at 100 nM incubated for 72 hrs by propidium iodide staining based flow cytometry; assay type: functional
[27] = test system: HT-29; experiment: Induction of apoptosis in human HT-29 cells assessed as increase in cell accumulation at sub-G0/G1 phase at 100 nM incubated for 48 hrs by propidium iodide staining based flow cytometry; assay type: functional
[28] = test system: HT-29; experiment: Induction of apoptosis in human HT-29 cells assessed as increase in cell accumulation at sub-G0/G1 phase at 100 nM incubated for 72 hrs by propidium iodide staining based flow cytometry; assay type: functional
[29] = test system: HL-60; experiment: Induction of cell cycle arrest in human HL-60 cells assessed as accumulation of cells at G2/M phase at 100 nM after 48 hrs by propidium iodide staining-based flow cytometric analysis; assay type: functional
[30] = test system: HL-60; experiment: Induction of cell cycle arrest in human HL-60 cells assessed as accumulation of cells at G2/M phase at 100 nM after 72 hrs by propidium iodide staining-based flow cytometric analysis; assay type: functional
[31] = test system: HeLa; experiment: Induction of cell cycle arrest in human HeLa cells assessed as accumulation of cells at G2/M phase at 100 nM after 48 hrs by propidium iodide staining-based flow cytometric analysis; assay type: functional
[32] = test system: HeLa; experiment: Induction of cell cycle arrest in human HeLa cells assessed as accumulation of cells at G2/M phase at 100 nM after 72 hrs by propidium iodide staining-based flow cytometric analysis; assay type: functional
[33] = test system: HT-29; experiment: Induction of cell cycle arrest in human HT-29 cells assessed as accumulation of cells at G2/M phase at 100 nM after 48 hrs by propidium iodide staining-based flow cytometric analysis; assay type: functional
[34] = test system: HT-29; experiment: Induction of cell cycle arrest in human HT-29 cells assessed as accumulation of cells at G2/M phase at 100 nM after 72 hrs by propidium iodide staining-based flow cytometric analysis; assay type: functional
[35] = test system: HT-29; experiment: Induction of cell cycle arrest in human HT-29 cells assessed as sum of Sub-G0/G1 and G2/M population at 1 uM after 48 hrs by propidium iodide staining based flow cytometry; assay type: functional
[36] = test system: HT-29; experiment: Induction of cell cycle arrest in human HT-29 cells assessed as sum of Sub-G0/G1 and G2/M population at 10 uM after 48 hrs by propidium iodide staining based flow cytometry; assay type: functional
[37] = test system: HT-29; experiment: Induction of cell cycle arrest in human HT-29 cells assessed as sum of Sub-G0/G1 and G2/M population at 1 uM after 72 hrs by propidium iodide staining based flow cytometry; assay type: functional
[38] = test system: HT-29; experiment: Induction of cell cycle arrest in human HT-29 cells assessed as sum of Sub-G0/G1 and G2/M population at 10 uM after 72 hrs by propidium iodide staining based flow cytometry; assay type: functional
[39] = test system: HEK293; experiment: Induction of mitotic arrest in human HEK293 cells; assay type: cell-based
[40] = test system: HEK293; experiment: Induction of apoptosis in human HEK293 cells; assay type: cell-based
[41] = test system: HeLa; experiment: Induction of mitotic arrest in human HeLa cells assessed as increase in MPM-2 expression at 1 uM incubated for 24 to 48 hrs by Western blot analysis; assay type: functional, cell-based; conditions: time 24-48 hrs
[42] = test system: HeLa; experiment: Induction of apoptosis in human HeLa cells assessed as increase in cleaved PARP level at 1 uM after 24 to 48 hrs by Western blot analysis; assay type: functional, cell-based; conditions: time 24-48 hrs
[43] = test system: HeLa; experiment: Induction of cell cycle arrest in human HeLa cells assessed as accumulation of cells at G2/M phase after 24 hrs by propidium iodide staining-based flow cytometric analysis; assay type: functional
[44] = test system: HeLa; experiment: Induction of apoptosis in human HeLa cells assessed as accumulation of cells at sub-G0/G1 phase after 24 hrs by propidium iodide staining-based flow cytometric analysis; assay type: functional, cell-based
[45] = test system: HT-29; experiment: Induction of cell cycle arrest in human HT-29 cells assessed as accumulation of cells at G2/M phase after 24 hrs by propidium iodide staining-based flow cytometric analysis; assay type: functional

SMILES: CSc1cc(C(=NO)c2ccc3c(c2)c(C#N)cn3C)cc(Cl)n1
- solubility thermodynamic at 72 h [1]: 5.1 µg/mL (≈ 14.3 µM)
- IC50 [2]: 200 nM
- IC50 [3]: 57 nM
- IC50 [4]: 93 nM
- IC50 [5]: 195 nM
- Activity [6]: Active
- Activity [7]: inactive
- Activity [8]: inactive
- Activity [9]: inactive
- Activity [10]: inactive
- Activity [11]: inactive
- Activity [12]: inactive
- Activity [13]: inactive
- Activity [14]: inactive
- Activity [15]: inactive
- Activity [16]: inactive
- Activity [17]: inactive
- Activity [18]: inactive
- Activity [19]: 77.4%
- Activity [20]: 84.4%
- Activity [21]: 73.2%
- Activity [22]: 15.7%
- Activity [23]: 22.7%
- Activity [24]: 33.1%
- Activity [25]: 35.9%
- Activity [26]: 83.3%
- Activity [27]: 28.1%
- Activity [28]: 64.7%
- Activity [29]: 39.7%
- Activity [30]: 23.3%
- Activity [31]: 46.9%
- Activity [32]: 4.6%
- Activity [33]: 54.9%
- Activity [34]: 4.7%
- Activity [35]: 91.1%
- Activity [36]: 92.1%
- Activity [37]: 39.1%
- Activity [38]: 40.7%
- Activity [39]: Toxic
- Activity [40]: Non-Toxic
- Activity [41]: Active
- Activity [42]: Active
- Activity [43]: Active
- Activity [44]: Active
- Activity [45]: Active

SMILES: C=C(c1cc(Cl)nc(SC)c1)c1ccc2c(c1)c(C=O)cn2C
- solubility thermodynamic at 72 h [1]: 6.3 µg/mL (≈ 18.4 µM)
- IC50 [2]: 1600 nM
- IC50 [3]: 72 nM
- IC50 [4]: 38 nM
- IC50 [5]: 876 nM
- Activity [6]: Active
- Activity [7]: inactive
- Activity [8]: inactive
- Activity [9]: inactive
- Activity [10]: inactive
- Activity [11]: inactive
- Activity [12]: inactive
- Activity [13]: inactive
- Activity [14]: inactive
- Activity [15]: inactive
- Activity [16]: inactive
- Activity [17]: inactive
- Activity [18]: inactive
- Activity [19]: 80.1%
- Activity [21]: 56.9%
- Activity [22]: 25.2%
- Activity [23]: 20.9%
- Activity [24]: 32.6%
- Activity [25]: 47.6%
- Activity [26]: 59.1%
- Activity [29]: 40.5%
- Activity [30]: 22%
- Activity [31]: 30.4%
- Activity [32]: 7.9%
- Activity [33]: 11.8%
- Activity [34]: 15.1%
- Activity [39]: Toxic
- Activity [40]: Non-Toxic
- Activity [41]: Active
- Activity [42]: Active
- Activity [43]: Active
- Activity [44]: Active
- Activity [45]: inactive
